Laboratory results as given in patent publication US20230094176A1, “COMPOUNDS AND METHODS FOR IMPROVING IMPAIRED ENDOGENOUS FIBRINOLYSIS USING HISTONE DEACETYLASE INHIBITORS” (Cereno Scientific AB, priority 2011, published 2023).
Like-named read-outs stand apart in the source and are kept apart here.

Experiments:
[1] = tested on: TNF-a suppressed t-PA mRNA in HUVECs; test: TNF-alpha suppression of t-PA mRNA in HUVEC: anti-inflammatory substances versus Givinostat; assay type: cell-based, human; settings: HUVEC, TNF-a 1 h then substance; ASA 1 mM, IBU 1 mM
Procedure: HUVECs were treated with TNF-alpha (TNF-a) for 1 h and then optimal concentrations of the anti.inflammatory substances acetylsalicylic acid (ASA, 1 mM) and ibuprofen (IBU, 1 mM) was added. Givinostat was also added to the cells for comparison. Cells were harvested and t-PA mRNA levels analysed according to example 1.

t-PA mRNA in HUVECs = test: C100: dose giving a 100% increase of t-PA mRNA in HUVEC (24 h); assay type: cell-based, human
Procedure: HUVECs are treated with different concentrations of first generation hydroxamates (TSA), second generation hydroxamates (Givinostat, Vorinostat, Belinostat, Panobinostat, SB939, PCI24781), benzamides (Mocetinostat, Entinostat) or short chain fatty acids (SCFA, Butyrate, Phenylbutyrate) for 24 h and t-PA mRNA was measured. The doses giving a 100% increase of t-PA mRNA (C100) was determined and compared to the maximum plasma concentration (Cmax) achieved when the maximum tolerated dose (MTD) of each substance is administered to humans, by dividing the C100 with the Cmax. […] In the table below the values for MTD and Cmax are from the following references (mentioned in the same order as in the table): Steele, N. L. et al Cancer Chemother Pharmacol 67(6):1273-9 (2011), Kelly, K. K. et al J Clin Oncol 23:3923-3931 (2005), Furlan, A. et al Mol Med 17(5-6) 353-362 (2011), Fukutomi, A. et al Invest New Drugs 2011 Apr. 12, Yong, W. P. et al Ann Oncol 22(11) 2516-22 (2011), Garcia-Manero, G. et al. Blood 112: 981-989 (2008), Ryan, Q. C. et al J Clin Oncol 23(17): 3912-3922 (2005), Edelman, M. J. et al Cancer Chemother Pharmacol 51: 439-444, http://www.drugs.com/pro/buphenyl.html *Butyrate was administered in the prodrug form tributyrin.

[2] = cited from earlier work; for Cmax / Cmax (ng/ml): maximum plasma concentration when the MTD is administered to humans
[3] = tested on: t-PA mRNA expression in human umbilical vein endothelial cells (HUVECs); test: In vitro dose response: t-PA mRNA (and protein) expression in HUVEC after 24 h; assay type: cell-based
Procedure: Human umbilical vein endothelial cells (HUVECs) were prepared by collagenase treatment of fresh umbilical cords (Jaffe, E. A., et al. J Clin Invest 52, 2745-2756 (1973)) obtained from the maternity ward of the Sahlgrenska University hospital, Gotheburg, Sweden. Cells were cultured in EGM-2 medium (Lonza, Basel, Switzerland) and all experiments were performed in passage 1 of subcultivation. Confluent HUVECs were exposed to 10 nM-10 μM of Vorinostat (Selleck Chemicals, Houston, Tex., USA) in complete medium for 24 h. After 24 h, cells and conditioned media were harvested.
Total RNA was prepared using RNeasy Mini RNA kit (Qiagen, Hilden, Germany) and genomic DNA was removed using RNase-free DNase I set (Qiagen). Levels of t-PA mRNA were analyzed with real-time RT-PCR, performed on an Applied Biosystems 7500 Fast Real-Time PCR System using cDNA and Taqman reagents obtained from Applied Biosystems (Foster City, Calif., USA). Hypoxanthine phosphoribosyl transferase (HPRT, Assay number Hs99999909_m1, Applied Biosystems) was used as endogenous internal standard.
Endothelial cells in culture are known to constitutively secrete the majority of synthesized t-PA making conditioned media a suitable source for quantification of t-PA protein. Conditioned medium from cell cultures was collected, centrifuged (10 000×g, 10 min, 4° C.) to remove cell debris, transferred to fresh tubes and stored at −70° C. Concentrations of t-PA antigen in conditioned media were determined using the commercially available TriniLize t-PA antigen ELISA (Trinity Biotech, Bray, Ireland) according to manufacturer's protocol.

[4] = tested on: t-PA production in endothelial cells; settings: Arts et al 1995; cited from earlier work

With `CC(=O)Oc1ccccc1C(=O)O` [ASA, acetylsalicylic acid] the “effect on TNF-a mediated suppression of t-PA expression” value (“effect on TNF-a mediated suppression” for short) [1] was “not counteracted”.

In the case of `CCCC(=O)O` [Butyrate], the “C100 tPA (μM)” value (t-PA mRNA in HUVECs) is given as 100 µM, the MTD ([2]; humans, literature, butyrate administered in the prodrug form tributyrin) is given as 200 mg/kg t.i.d and the Cmax ([2]; butyrate as prodrug tributyrin) is given as 100 µM.

In the case of `Nc1ccccc1NC(=O)c1ccc(CNC(=O)OCc2cccnc2)cc1` [Entinostat], the “C100 tPA” value (t-PA mRNA in HUVECs) is given as 0.3 µM, the Cmax [2] is given as 0.12 µM and the “Cmax (ng/ml)” value [2] is given as 45 ng/mL.

In the case of `CC(C)Cc1ccc(C(C)C(=O)O)cc1` (centres unmarked) [IBU, ibuprofen], the “effect on TNF-a mediated suppression” value [1] is reported as “not counteracted”.

In the case of `CCCCc1nc2cc(/C=C/C(=O)NO)ccc2n1CCN(CC)CC` [SB939, (2E)-3-{2-butyl-1-[2-(diethylamino)ethyl]-1H-benzimidazol-5-yl}-N-hydroxyacrylamide], the “concentration at which a significant increase of t-PA mRNA levels was seen” value [3] is reported as 30 nM, the “concentration of maximal effect on t-PA expression” value [3] is reported as “around 1 μM” and the “increase of t-PA expression at maximal effect” value [3] is reported as “approximately 10 times”. For the same compound, the “C100 tPA” value (t-PA mRNA in HUVECs) was 0.05 µM, the MTD ([2]; humans, literature) was 80 mg and the Cmax [2] was 1.1 µM. The “Cmax (ng/ml)” value [2] was about 400 ng/mL and the MTD ([2]; once daily, oncology treatment or trials) was 60 mg once daily.

In the case of `CC(/C=C/C(=O)NO)=C\[C@@H](C)C(=O)c1ccc(N(C)C)cc1` [Trichostatin A, trichostatin A], the “t-PA production in endothelial cells” value [4] is listed as “increased”.

With `CC(=O)Oc1ccccc1C(=O)O` [aspirin] the “effect on TNF-a mediated suppression” value [1] was “unable to reverse”.

With `CC(C)Cc1ccc(C(C)C(=O)O)cc1` (centres unmarked) [ibuprofen] the “effect on TNF-a mediated suppression” value [1] was “unable to reverse”.

For Phenylbutyrate, the “C100 tPA (μM)” value (t-PA mRNA in HUVECs) is listed as 1300 µM, the MTD ([2]; humans, literature) is listed as 5000 mg and the Cmax ([2]; butyrate as prodrug tributyrin) is listed as 1100 µM. The “Cmax (ng/ml)” value [2] was 218 000 ng/ml.
